From patent US20230310441A1, “TREATMENT FOR SCHIZOPHRENIA” (TAKEDA PHARMACEUTICAL COMPANY, priority 2020, published 2023) come the findings set out here.

Assay type in all cases: in vivo, human
The nature of series [1]: Phase 2 crossover study: plasma pharmacokinetics in schizophrenia subjects. Particulars: for AUC(0-inf) / Cmax / Tmax: human, plasma, schizophrenia subjects; for Tmax: read-out: median tmax. How it is done:
(§1) On Day 1 of each treatment period, following study drug administration, and commencing at approximately 2 h post-dose, subjects underwent PD tests for a total of approximately 4 h. Blood samples were collected at defined times after dosing to assess the PK of Compound (I). After the last PK collection at 6 h post-dose, subjects left the clinic. On Day 14 of each Treatment Period, subjects took the second set of PD tests along with a single time point PK collection. Samples for PK were also collected on Day 49 and at the final visit of the second treatment period. PD testing were performed in 3 blocks, separated by 2 breaks. The first block comprised the Grip Effort Task, the Progressive Ratio Test, and the Brief Assessment of Cognition in Schizophrenia (BACS). The BACS is a reliable and sensitive test battery specifically designed to efficiently assesses important cognitive deficits in patients with schizophrenia; accordingly, the BACS is suited for repeated testing in a clinical trial setting (Keefe et al., 2004). […] The following domains of cognitive function found to be consistently impaired in schizophrenia were assessed in this study: verbal memory; working memory; motor function; attention and processing speed; verbal fluency; and executive function. A composite score was calculated from each of the subset scores and used as a single endpoint for the assessment.
Dosing involved participants drinking a single bottle of oral suspension, containing either Compound (I) (40 or 160 mg Compound (I) mixed with 70 mL Tween/MC vehicle) or placebo (70 mL of Tween/MC vehicle) (Table 11). Participants were instructed to drink the full contents of the bottle, which was then rinsed twice with 35 mL water, which participants also drank. The initial dose level selected was 40 mg, which was adjusted to 160 mg following a planned interim analysis of available PK and safety data from emerging first-in-human cohort data.
The PK set consisted of all subjects who received at least 1 dose of study drug and had at least 1 measurable plasma concentration.
Compound (I) plasma concentrations were tabulated and summarized by descriptive statistics at each scheduled time point (mean, median, SD, percent coefficient of variation, minimum, and maximum) for each treatment and dose level. Individual subject plasma concentration data were listed.
The plasma PK parameters of Compound (I) were determined from the concentration-time profiles for all evaluable subjects. Actual sampling times, rather than scheduled sampling times, were used in all computations involving sampling times. The following PK parameters were calculated using non-compartmental analysis using Phoenix WinNonLin (version 6.3 or higher): area under the plasma concentration-time curve from time 0 to time t, area under the plasma concentration-time curve from time 0 to infinity (AUC∞), maximum observed plasma concentration (Cmax), time of first occurrence of Cmax (tmax), and terminal disposition phase half-life.

The nature of series [2]: Brief Assessment of Cognition in Schizophrenia (BACS) composite score. The method, then: as §1
The BACS consisted of items across 6 subtests: Verbal Memory, Digit Sequencing, Token Motor, Verbal Fluency, Symbol Coding, and Tower of London.
The observed BOLD signal was summarized (N, mean, median, SD, minimum, and maximum) by treatment (Compound (I) (overall and by dose) and placebo) and time. The BACS composite score was summarized for baseline, post-dose, and change from baseline by treatment, dose, and time.
Each of the primary PD measures was analyzed using a Bayesian normal linear model with effects for sequence, period, treatment, time (as a categorical variable), the treatment-by-time interaction, subject within treatment sequence, and baseline (for BACS only). For the BOLD fMRI, the observed value was the response variable in the model. For the BACS, the observed and the change from baseline were modeled separately. Missing values were not imputed and were not included in the model under a missing at random assumption. A diffuse normal distribution with mean zero and variance 106 was used as a prior for the regression coefficients and a diffuse inverse gamma with shape and scale parameters of 0.01 for the residual variance. […]

A further series concerns cerebral blood flow. Put plainly: Average global cerebral blood flow (pCASL MRI). From the text: Whole brain maps of regional cerebral blood flow (CBF) were obtained using an ASL methodology previously reported (Hawkins et al., 2018; Dai et al., 2008). Briefly, images were acquired using a pseudo-continuous Arterial Spin Labelling sequence (pCASL) with a multi-shot, segmented 3D stack of axial spirals (8-arms) readout with a resultant spatial resolution of 2×2×3 mm. Three control-label pairs were used to derive a perfusion weighted difference image. The labelling RF pulse had duration of 1.5 s and a post-labelling delay of 1.5 s. The sequence included background suppression for optimum reduction of the static tissue signal. A Proton Density image was acquired in 48 s using the same acquisition parameters to compute the CBF map in standard physiological units (mL blood/100 g tissue/min). Two runs were acquired per visit and averaged following preprocessing.
The T2-weighted image was co-registered to the T1-weighted image prior to creation of the DARTEL template, and each session's Proton Density image was then co-registered to the T2-weighted image. The parameters for this transformation were then applied to the CBF maps, and the DARTEL flow field applied to normalize to CBF maps to MNI space, before smoothing with a 6 mm FWHM kernel.
Average global cerebral blood flow (CBF) was extracting using an SPM MNI whole brain mask in MarsBar, and was analyzed at each time point with a mixed two-way ANOVA (treatment (placebo/drug) within subject factor, dose level (40 mg/160 mg) between-subject factor) (FIG. 4).

Read-outs that look alike come from different tables or passages of the source.

As usually defined, the AUC(0-inf) is total exposure, with the tail of the curve extrapolated. In general, Cmax refers to the peak of the concentration-time curve. For orientation: Tmax means the time at which the peak concentration occurs. On to `C[C@H](NC(=O)Cn1nnc2ccccc2c1=O)c1ccc(OC(F)(F)F)cc1` [Compound (I), (S)-2-(4-oxobenzo[d][1,2,3]triazin-3(4H)-yl)-N-(1-(4-(trifluoromethoxy)phenyl)ethyl)acetamide], for which the “increase of mean AUC∞ for a 4-fold increase in dose” value in series [1] (40 to 160 mg) came out at 3.5 fold. Also, the “increase of mean Cmax for a 4-fold increase in dose” value in series [1] (40 to 160 mg) turned out to be 2.8 fold. For the same compound, the total exposure AUC(0-inf) in series [1] (single oral dose 40 mg) turned out to be 217 µg·h/mL; in series [1] (single oral dose 160 mg), 763 µg·h/mL. For the same compound, the highest concentration (Cmax) in series [1] (single oral dose 40 mg) stood at 549 ng/mL; in series [1] (single oral dose 160 mg), 1520 ng/mL. Also, the Tmax is 1.83 h in series [1] (single oral dose 40 mg) and 1.92 h in series [1] (single oral dose 160 mg). The “posterior mean (SD) for the difference to placebo, BACS composite score” value in series [2] (Day 14, 40 mg) is reported as −0.23 (2.95); in series [2] (Day 14, 160 mg) it was −0.84 (1.87); in series [2] (Day 14, overall), −0.61 (1.50). Further, in series [2] (phase 2), the BACS performance entry is on record as “not seen to be affected”. Further, the “effect of treatment on average global CBF (mixed two-way ANOVA)” value in the series on cerebral blood flow (Day 1, 40 mg/160 mg vs placebo, F(1, 18)=5.978, p=0.025) is “significant effect of treatment”; with cerebral blood flow (Day 14, 40 mg/160 mg vs placebo, F(1, 15)=3.558, p=0.079), “no significant effect of treatment”. Moreover, the “effects on cerebral blood flow compared to placebo” value with cerebral blood flow (Day 1 and Day 14) is “widespread and robust reductions at Day 1 followed by increases at Day 14”.
